Reference: publication PMC3252466 (Chirality, 2011)

Assays:
human CYP2C9 = human CYP2C9 (Homo sapiens, UniProt P11712); details: read-out: IC50 CYP2C9; recombinant human CYP2C9 15 nM, 150 μM MFC, 45 min, 37°C; mean (95% confidence interval)
human CYP2C19 = human CYP2C19 (Homo sapiens, UniProt P33261); details: read-out: IC50 CYP2C19; recombinant human CYP2C19 7.5 nM, 25 μM CEC, 30 min, 37°C; mean (95% confidence interval)
CYP2B6 = CYP2B6 (Homo sapiens, UniProt P20813); details: concentrations up to 10 μM; pooled HLMs, 100 μM bupropion; data not shown
Chain of CYP2B6 (P20813 whole entry): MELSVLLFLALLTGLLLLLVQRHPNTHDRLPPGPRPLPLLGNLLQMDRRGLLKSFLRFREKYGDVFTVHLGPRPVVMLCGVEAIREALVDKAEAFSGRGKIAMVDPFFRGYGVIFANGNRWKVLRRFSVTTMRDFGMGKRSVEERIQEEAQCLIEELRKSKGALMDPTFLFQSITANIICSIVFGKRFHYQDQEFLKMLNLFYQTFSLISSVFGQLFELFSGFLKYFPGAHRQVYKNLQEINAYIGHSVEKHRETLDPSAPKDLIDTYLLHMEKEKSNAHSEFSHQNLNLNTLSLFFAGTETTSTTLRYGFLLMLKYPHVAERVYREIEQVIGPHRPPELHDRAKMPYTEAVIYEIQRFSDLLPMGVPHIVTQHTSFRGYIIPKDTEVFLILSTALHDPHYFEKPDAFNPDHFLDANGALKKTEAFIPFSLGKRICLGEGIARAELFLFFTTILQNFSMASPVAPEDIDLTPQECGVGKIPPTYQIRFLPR

Chain of human CYP2C19 (P33261 whole entry): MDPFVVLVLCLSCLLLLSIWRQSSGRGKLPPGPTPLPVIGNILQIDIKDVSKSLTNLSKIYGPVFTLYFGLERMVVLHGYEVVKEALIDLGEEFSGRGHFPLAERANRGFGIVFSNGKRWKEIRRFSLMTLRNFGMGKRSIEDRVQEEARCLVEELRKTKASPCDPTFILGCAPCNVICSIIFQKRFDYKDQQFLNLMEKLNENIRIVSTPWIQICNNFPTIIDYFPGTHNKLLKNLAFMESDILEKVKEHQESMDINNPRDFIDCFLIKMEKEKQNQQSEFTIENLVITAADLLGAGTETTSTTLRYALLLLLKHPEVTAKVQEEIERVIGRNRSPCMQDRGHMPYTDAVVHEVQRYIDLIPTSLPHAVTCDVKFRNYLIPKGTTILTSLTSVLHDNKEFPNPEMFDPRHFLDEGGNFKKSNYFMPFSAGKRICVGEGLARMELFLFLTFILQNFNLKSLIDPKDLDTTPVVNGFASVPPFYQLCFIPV
Chain of human CYP2C9 (P11712 whole entry): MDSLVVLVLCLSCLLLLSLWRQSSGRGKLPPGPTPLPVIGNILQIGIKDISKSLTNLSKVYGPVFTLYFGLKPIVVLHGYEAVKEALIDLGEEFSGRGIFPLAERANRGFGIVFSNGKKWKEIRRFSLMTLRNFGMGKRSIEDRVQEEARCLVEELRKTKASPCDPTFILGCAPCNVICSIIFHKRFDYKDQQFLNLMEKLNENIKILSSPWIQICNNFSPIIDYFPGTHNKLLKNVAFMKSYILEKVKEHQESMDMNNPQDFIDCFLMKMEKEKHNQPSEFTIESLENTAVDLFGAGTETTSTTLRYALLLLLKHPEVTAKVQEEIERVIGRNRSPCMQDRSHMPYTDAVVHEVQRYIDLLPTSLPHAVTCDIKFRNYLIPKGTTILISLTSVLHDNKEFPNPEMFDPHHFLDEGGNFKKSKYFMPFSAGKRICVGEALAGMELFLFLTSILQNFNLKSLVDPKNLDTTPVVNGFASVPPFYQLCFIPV

| Molecule | IC50 (human CYP2C9) | IC50 (human CYP2C19) | Inhibition of CYP2B6 (CYP2B6) |
| --- | --- | --- | --- |
| O=C1C[C@@H](c2ccc(O)cc2)Oc2cc(O)cc(O)c21 [(S)-naringenin] | 3400 nM | 1200 nM | – |
| naringenin [rac-naringenin] | – | – | No appreciable inhibition |
| O=C1C[C@H](c2ccc(O)cc2)Oc2cc(O)cc(O)c21 [(R)-naringenin] | 1600 nM | 4900 nM | – |
